# Assay results reported in patent US20120114588A1, “IBAT INHIBITORS FOR TREATMENT OF METABOLIC DISORDERS AND RELATED CONDITIONS” (ALBIREO AB, priority 2010, published 2012).
# Experiments:
# IBAT = target: T1, IBAT (Mus musculus, UniProt P70172); experiment: 75SeHCAT intestinal absorption (faecal excretion / body retention) in ApoE knock out mice; assay type: in vivo; details: single oral dose 0.156 μmol/kg, 75SeHCAT given 30 min later, 24 h collection, read-out: % inhibition 0.156 μmol/kg (mean IBAT inhibitory effect)
# T1 construct: from tissue; host or cells: living ApoE knock-out C57BL/6 mice (intestine, in vivo)
# T1 sequence (P70172 1-348): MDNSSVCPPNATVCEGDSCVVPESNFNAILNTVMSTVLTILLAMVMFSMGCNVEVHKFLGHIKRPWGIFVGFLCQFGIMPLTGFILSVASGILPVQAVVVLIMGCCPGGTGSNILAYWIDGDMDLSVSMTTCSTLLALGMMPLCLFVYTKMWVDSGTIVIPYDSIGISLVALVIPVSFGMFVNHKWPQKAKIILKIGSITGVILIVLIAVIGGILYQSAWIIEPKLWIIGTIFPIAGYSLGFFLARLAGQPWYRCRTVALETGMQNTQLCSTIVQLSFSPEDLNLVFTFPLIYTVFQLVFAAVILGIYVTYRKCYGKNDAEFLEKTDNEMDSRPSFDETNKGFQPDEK
# Experimental: Species Mouse; Strain ApoE knock out; Substrain C57BL/6; Sex Female; Total No. of animals 70; Body weight range 20 g to 22 g; Supplier Mollegaard's Breeding (Skensved, Denmark); Identification method ID cards (bar code).
# Acclimatisation At least one week at the Section of Laboratory; Animal Resource at AstraZeneca; Housing conditions Kept five by five in cages (Makrolon III, 7 dm2) in a room with regulated temperature ([…]), relative humidity (40% to 60%) and a 12/12 hours light/dark cycle. Diet Free access to R3 pellets (Lactamin, Vadstena, Sweden) during the housing and experimental period. Water Free access to tap water during the housing and experimental period.
# Volume(s) of administration 0.1 mL per mousen […]
# The animals were orally administered vehicle or Example 14 (0.156 , 0.625 or 2.5 pmol/kg) at 13:00 o'clock on the experimental day. […] The gamma radioactivities of 75SeHCAT in the faeces and in the gall bladder-intestine were separately counted by 1282 CompuGamma CS Gamma counter (Wallac oy, Turku, Finland). The stability as well as the quantity of the 75SeHCAT administered to each mouse, were controlled with an additional 75SeHCAT aliquot following the same experimental process as other tested samples in the study. […]
# The mean IBAT inhibitory effect (%) at a dose (pmol/kg): 0.156 was determined for the compounds of examples 1-14 and is reported in Table 1.
# [1] = target: T2, Ileal Bile Acid Transporter Human (Homo sapiens, UniProt Q12908); experiment: ISBT Hu HEK Uptake SPA: Human HEK Glycocholic acid Uptake Radiometric SPA; assay type: cell-based; details: human IBAT in HEK cells
# T2 construct: expressed in transfected cells; host or cells: HEK
# T2 sequence (Q12908 1-348): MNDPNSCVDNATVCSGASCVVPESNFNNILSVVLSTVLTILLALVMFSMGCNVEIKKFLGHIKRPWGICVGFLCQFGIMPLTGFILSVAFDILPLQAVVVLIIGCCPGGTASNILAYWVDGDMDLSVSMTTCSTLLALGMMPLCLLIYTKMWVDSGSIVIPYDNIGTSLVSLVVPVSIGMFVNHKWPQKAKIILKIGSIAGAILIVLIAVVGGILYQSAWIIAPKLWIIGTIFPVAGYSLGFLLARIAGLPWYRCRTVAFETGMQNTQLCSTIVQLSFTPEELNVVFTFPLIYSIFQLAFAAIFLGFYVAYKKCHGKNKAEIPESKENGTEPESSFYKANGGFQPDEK
# Experimental: ISBT Hu HEK Uptake SPA 13203 IBAT HUM Ileal Bile Acid Transporter Human HEK Glycocholic acid Uptake Radiometric—SPA Inhibitor IC50 Mean IC50 (nM) was determined for the compounds of examples 1-14
smiles,measurement,setting,value
"CCCCC1(CCCC)CN(c2ccccc2)c2cc(SC)c(OCC(=O)N[C@@H](C(=O)N[C@@H](CC)C(=O)O)c3ccc(O)cc3)cc2S(=O)(=O)C1 [Example 11, 1,1-Dioxo-3,3-dibutyl-5-phenyl-7-methylthio-8-(N-{(R)-α-[N′-((S)-1-carboxypropyl)carbamoyl]-4-hydroxybenzyl}carbamoylmethoxy) -2,3,4,5-tetrahydro-1,5-benzothiazepine]",inhibition at 0.156 µmol/kg,IBAT,63%
same,IC50,[1],0.15 nM
